The subject of this test is Saccharomyces cerevisiae. Nature of the test: Antifungal activity against Saccharomyces cerevisiae W303-1A at 30 mM after 48 hrs. Format: functional, organism-based.
As to “10-Chloro-2-phenylphenothiabismine 5,5-dioxide”, the inhibition zone (IZ) was 0 mm.

“10-(Cinnamoyloxy)phenothiabismine 5,5-dioxide” gave an inhibition zone (IZ) of 14 mm. In the case of “10-(Azulene-2-carboxy)phenothiabismine 5,5-dioxide”, the inhibition zone (IZ) stood at 14 mm. Turning to “10-(4-Aminobenzoyloxy)phenothiabismine 5,5-dioxide”, the inhibition zone (IZ) was determined as 15 mm. To “10-(p-tolyl)benzo[b][1,4]benzothiabismine 5,5-dioxide” belongs 0 mm. The substance “10-(4-Acetoxybenzoyloxy)phenothiabismine 5,5-dioxide” had an inhibition zone (IZ) of 17 mm. “10-(Azulene-6-carboxy)phenothiabismine 5,5-dioxide” displayed an inhibition zone (IZ) of 12 mm. “10-(2-Naphthoyloxy)phenothiabismine 5,5-dioxide” came in with an inhibition zone (IZ) of 12 mm. The value for “10-(Nicotinoyloxy)phenothiabismine 5,5-dioxide” was 14 mm; that for “10-(2-Acetoxybenzoyloxy)phenothiabismine 5,5-dioxide” was 12 mm; that for “10-(1,3-Dibromoazulene-2-carboxy)phenothiabismine 5,5-dioxide” was 12 mm. The value for “10-Chloro-2-tert-butylphenothiabismine 5,5-dioxide” was 0 mm; that for “10-(9-Anthranoyloxy)phenothiabismine 5,5-dioxide” was 14 mm. Consider “10-chlorobenzo[b][1,4]benzothiabismine 5,5-dioxide”, for which the inhibition zone (IZ) is 18 mm. In the case of “2,8-Dihydroxy-10-chlorophenothiabismine 5,5-dioxide”, the inhibition zone (IZ) turned out to be 8 mm.

On to “10-(Indol-3-acetoxy)phenothiabismine 5,5-dioxide”, for which the inhibition zone (IZ) was determined as 13 mm. Take “10-(1,3-Dichloroazulene-2-carboxy)phenothiabismine 5,5-dioxide”: the inhibition zone (IZ) was determined as 13 mm.

In turn, “10-(N-Phthalylglycyloxy)phenothiabismine 5,5-dioxide” gave an inhibition zone (IZ) of 12 mm. The value for “10-(4-Nitrobenzoyloxy)phenothiabismine 5,5-dioxide” was 17 mm.

In turn, “10-(Benzoyloxy)phenothiabismine 5,5-dioxide” showed an inhibition zone (IZ) of 17 mm. The value for “10-(Azulene-1-carboxy)phenothiabismine 5,5-dioxide” was 11 mm; that for “10-(1-Naphthoyloxy)phenothiabismine 5,5-dioxide” was 13 mm; that for “tert-butyl-[2-[tert-butyl(dimethyl)silyl]oxy-10-chloro-5,5-dioxo-benzo[b][1,4]benzothiabismin-8-yl]oxy-dimethyl-silane” was 0 mm.

Source of the values: ChEMBL document CHEMBL2375317, “Heterocyclic bismuth carboxylates based on a diphenyl sulfone scaffold: synthesis and antifungal activity against Saccharomyces cerevisiae” (Eur J Med Chem, 2013).
